# Results as given in patent US11267844B2, “Spirothietane nucleosides” (Janssen Pharmaceutica NV, priority 2017, dated 2022).
# Like-named read-outs stand apart in the source and are kept apart here.
# Experiments:
# [1] = Cytotoxicity in Huh-7 cells (ATPlite cell viability); format: cell-based; details: human, Table 1A, read-out: Tox Huh-7 (CC50)
# Method: (§1) The antiviral activity of the compounds against DENV-2/16681/eGFP was determined in a phenotypic antiviral assay with eGFP read-out, a measure for the amount of virus (TV-WI-03476 and TV-WI-05601). In parallel, cytotoxicity of the compounds was measured using ATPLite™ (PerkinElmer, Waltham, Mass.). The assay was performed in two different cell-lines (Vero and Huh-7) to exclude cell-specific activity of the compound.
# (§2) In parallel, cytotoxic effects of the compounds (50% cytotoxic concentration [CC50] and 90% cytotoxic concentration [CC90]) were evaluated using an ATPlite cell viability luminescence assay (PerkinElmer). To this end, ATPlite was added to the wells according to the supplier's instructions once the eGFP read-out was performed, and the luminescence was measured; a measure directly relating to the number of viable cells. The CC50 was determined as the 50% inhibitory concentration for the luminescent signal in compound-treated DENV-infected cells compared to untreated DENV-infected cells (virus control), using a medium control as baseline of emitted light (i.e., 0% signal).
# [2] = system: HCV replicon (NS3-NS5B regions of HCV type 1b) in Huh-7 luc/neo cells; assay: HCV replicon assay (Huh-Luc cells, luciferase read-out); format: cell-based; details: Hepatitis C virus
# From the text: The compounds of Formula (I) were examined for activity against HCV in a cellular assay. […] The cellular assay was based on a bicistronic expression construct, as described by Lohmann et al. (1999) Science vol. 285 pp. 110-113 with modifications described by Krieger et al. (2001) Journal of Virology 75: 4614-4624, in a multi-target screening strategy.
# In essence, the method was as follows. The assay utilized the stably transfected cell line Huh-7 luc/neo (hereafter referred to as Huh-Luc). This cell line harbors an RNA encoding a bicistronic expression construct comprising the wild type NS3-NS5B regions of HCV type 1b translated from an internal ribosome entry site (IRES) from encephalomyocarditis virus (EMCV), preceded by a reporter portion (FfL-luciferase), and a selectable marker portion (neo^R, neomycine phosphotransferase). The construct is bordered by 5′ and 3′ NTRs (non-translated regions) from HCV genotype 1b. Continued culture of the replicon cells in the presence of G418 (neo^R) is dependent on the replication of the HCV-RNA. The stably transfected replicon cells that express HCV-RNA, which replicates autonomously and to high levels, encoding inter alia luciferase, were used for screening the antiviral compounds.
# The replicon cells were plated in 384-well plates in the presence of the test and control compounds which were added in various concentrations. Following an incubation of three days, HCV replication was measured by assaying luciferase activity (using standard luciferase assay substrates and reagents and a Perkin Elmer ViewLux™ ultraHTS microplate imager). Replicon cells in the control cultures have high luciferase expression in the absence of any inhibitor. The inhibitory activity of the compound on luciferase activity was monitored on the Huh-Luc cells, enabling a dose-response curve for each test compound. EC50 values were then calculated, which value represents the amount of the compound required to decrease the level of detected luciferase activity by 50%, or more specifically, the ability of the genetically linked HCV replicon RNA to replicate.
# [3] = Cytotoxicity in Vero cells (ATPlite cell viability); format: cell-based; details: African green monkey, Table 1A, read-out: Tox Vero (CC50)
# Method: as §1, §2
# [4] = system: CHIKV strain S27; assay: CHIKV CPE inhibition assay in Huh7 cells; format: cell-based; details: Chikungunya virus
# Method: The antiviral activities of the nucleoside analogs against chikungunya virus (CHIKV) were tested using a cell-based high-throughput CPE (cytopathic effect) inhibition assay. In this assay, CHIKV strain S27 and Huh7 cells (a human hepatoma cell line) were employed. The test compounds were prepared in a 9-point fourfold serial dilutions and plated in a 384-well plate. Then, a density of 8000 cells/well and an MOI (Multiplicity of Infection) of 0.25 CHIKV were added to each well. The plates were incubated at 37° C./5% CO2 for 2 days. The antiviral activity of a test compound was measured by addition of an ATPLite™ 1-step kit (PerkinElmer), which measures the ATP levels in live cells protected from viral CPE by a test compound. The cytotoxicity of test compounds was measured in parallel in the absence of virus infection. The readout is luminescence.
# [5] = system: DENV-2/16681/eGFP; assay: Antiviral activity against DENV-2/16681/eGFP in Huh-7 cells (eGFP read-out); format: cell-based, dengue virus serotype 2; details: Dengue virus, DENV2, Huh-7, 72 h, read-out: DENV Huh-7 (EC50, μM)
# Method: as §1
# (§3) DENV-2/16681/eGFP was produced by the transfection of the in vitro transcribed RNA of plasmid pFK-DVs-G2A (purchased from Prof. R. Bartenschlager, University of Heidelberg, Germany; FIG. 1) into Huh-7 cells (human hepatocarcinoma cells; kindly provided by Prof. R. Bartenschlager) (TV-WI-04247).
# (§4) In brief, 2,500 Vero cells (African green monkey kidney cells; European Collection of Cell Cultures [ECACC], Porton Down, UK; catalogue number 84113001) or Huh-7 cells were seeded in 384-well plates containing 9-fold serially diluted test compound. After incubating 24 h at 37° C., Vero and Huh-7 cells were infected with DENV-2/16681/eGFP at a multiplicity of infection (MOI) of 1 and 5, respectively. After 3 days of incubation at 37° C., the viral replication was quantified by measuring eGFP expression in the cells with a laser microscope. The 50% effective concentration (EC50) was defined as the concentration inhibiting 50% of the eGFP expression of the compound-treated DENV-infected cells vs. the untreated DENV-infected cells (virus control), using the cell controls as baseline of eGFP signal (i.e., 0% signal). In the same way, the 90% effective concentration (EC90) was calculated.
# [6] = system: DENV-2/16681/eGFP; assay: Antiviral activity against DENV-2/16681/eGFP in Vero cells (eGFP read-out); format: cell-based, dengue virus serotype 2; details: Dengue virus, DENV2, Vero, 72 h, read-out: DENV Vero (EC50, μM)
# Method: as §1, §3, §4
# [7] = biological target: HCV polymerase (Hepatitis C virus genotype 1b, UniProt Q9WMX2); assay: Biochemical HCV polymerase inhibition
# Chain of HCV polymerase (Q9WMX2 2420-3010): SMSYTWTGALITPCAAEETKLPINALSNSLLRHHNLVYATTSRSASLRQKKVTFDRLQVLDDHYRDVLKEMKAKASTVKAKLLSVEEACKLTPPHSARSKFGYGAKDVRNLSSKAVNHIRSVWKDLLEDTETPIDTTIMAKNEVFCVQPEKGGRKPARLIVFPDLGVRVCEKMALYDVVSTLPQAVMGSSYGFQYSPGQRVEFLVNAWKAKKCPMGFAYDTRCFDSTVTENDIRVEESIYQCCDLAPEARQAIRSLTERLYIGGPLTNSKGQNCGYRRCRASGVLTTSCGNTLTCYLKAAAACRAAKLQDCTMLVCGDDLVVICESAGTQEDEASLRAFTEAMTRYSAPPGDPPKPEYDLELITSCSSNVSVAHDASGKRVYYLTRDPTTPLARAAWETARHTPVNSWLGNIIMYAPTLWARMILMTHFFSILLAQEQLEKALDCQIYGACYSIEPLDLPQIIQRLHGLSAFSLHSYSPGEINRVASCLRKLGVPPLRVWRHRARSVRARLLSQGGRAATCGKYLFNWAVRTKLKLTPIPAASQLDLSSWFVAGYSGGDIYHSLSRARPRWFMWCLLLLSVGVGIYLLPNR
# [8] = Huh-7, 72 h, Table 1A, Huh-Luc replicon cells, 3 days, read-out: HCV Huh-7 (EC50)
# [9] = Huh-7, 48 h, Table 1A, Huh7 cells, MOI 0.25, 2 days, read-out: CHIKV Huh-7 (EC50)
# [10] = Huh-7, 48 h, read-out: CHIKV Huh-7 (EC50, μM)
Compound,CC50 [1] [µM],"EC50 [2, 8] [µM]",CC50 [3] [µM],"EC50 [4, 9] [µM]",EC50 [5] [µM],EC50 [6] [µM],"EC50 [4, 10] [µM]","EC50 ([2]; Huh-7, Table 1C, comparison with spiro-oxetane derivatives, read-out: HCV, Huh-7 (EC50)) [µM]","EC50 ([4]; Huh-7, Table 1C, comparison with spiro-oxetane derivatives, read-out: CHIKV, Huh7 (EC50)) [µM]",IC50 [7] [µM]
"O=c1ccn([C@@H]2O[C@]3(F)CO[P@@](=O)(NC4CCC4)O[C@H]3[C@]23CCS3)c(=O)[nH]1 [Compound 40b, 1-((2S,2′R,4aS,6R,7aR)-2-(cyclobutylamino)-4a-fluoro-2-oxidotetrahydrospiro[furo[3,2-d][1,3,2]dioxaphosphinine-7,2′-thietan]-6-yl)pyrimidine-2,4(1H,3H)-dione]",> 100,> 100,> 100,> 100,> 100,> 100,,,,
"O=c1ccn([C@@H]2O[C@]3(F)CO[P@](=O)(NC4CCC4)O[C@H]3[C@]23CCS3)c(=O)[nH]1 [Compound 40a, 1-((2R,2′R,4aS,6R,7aR)-2-(cyclobutylamino)-4a-fluoro-2-oxidotetrahydrospiro[furo[3,2-d][1,3,2]dioxaphosphinine-7,2′-thietan]-6-yl)pyrimidine-2,4(1H,3H)-dione]",> 100,> 100,> 100,> 100,> 100,> 100,,,,
"CC(C)OC(=O)[C@H](C)NP(=O)(OC[C@H]1O[C@@H](n2ccc(N)nc2=O)[C@@]2(CCS2)[C@@H]1O)Oc1ccccc1 (stereo partly drawn) [Compound 17, (2S)-isopropyl 2-(((((4R,5R,7R,8R)-5-(4-amino-2-oxopyrimidin-1(2H)-yl)-8-hydroxy-6-oxa-1-thiaspiro[3.4]octan-7-yl)methoxy)(phenoxy)phosphoryl)amino)propanoate]",> 50,> 50,> 50,> 50,19,> 50,,,,
"Nc1ncnc2c1ncn2[C@@H]1O[C@H](CO)[C@@H](O)[C@]12CCS2 [Compound 67, (4R,5R,7R,8R)-5-(6-amino-9H-purin-9-yl)-7-(hydroxymethyl)-6-oxa-1-thiaspiro[3.4]octan-8-ol]",> 50,> 50,> 50,,> 50,> 50,> 50,,,
"CC(C)OC(=O)[C@H](C)NP(=O)(OC[C@@]1(F)O[C@@H](n2ccc(=O)[nH]c2=O)[C@@]2(CCS2)[C@@H]1O)Oc1ccccc1 (stereo partly drawn) [Compound 23, (2S)-isopropyl 2-(((((4R,5R,7S,8R)-5-(2,4-dioxo-3,4-dihydropyrimidin-1(2H)-yl)-7-fluoro-8-hydroxy-6-oxa-1-thiaspiro[3.4]octan-7-yl)methoxv)(phenoxy)phosphoryl)amino)propanoate]",> 100,2,> 100,3,14,85,,2,3,
"Nc1ccn([C@@H]2O[C@H](CO)[C@@H](O)[C@]23CCS3)c(=O)n1 [Compound 12, 4-amino-1-((4R,5R,7R,8R)-8-hydroxy-7-(hydroxymethyl)-6-oxa-1-thiaspiro[3.4]octan-5-yl)pyrimidin-2(1H)-one]",> 100,> 100,> 100,,> 100,> 100,> 100,,,
"[N-]=[N+]=N[C@]1(CO)O[C@@H](n2ccc(=O)[nH]c2=O)[C@@]2(CCS2)[C@@H]1O [Compound 44, 1-[(4R,5R,6R,8R)-6-azido-5-hydroxy-6-(hydroxymethyl)-7-oxa-1-thiaspiro[3.4]octan-8-yl]pyrimidine-2,4-dione]",> 100,> 100,> 100,,> 100,> 100,> 100,,,
[N-]=[N+]=N[C@]1(COP(=O)(O)OP(=O)(O)OP(=O)(O)O)O[C@@H](n2ccc(=O)[nH]c2=O)[C@@]2(CCS2)[C@@H]1O [Compound 62],,,,,,,,,,0.56
"Nc1ccn([C@@H]2O[C@](F)(CO)[C@@H](O)[C@]23CCS3)c(=O)n1 [Compound 27, 4-amino-1-((4R,5R,7S,8R)-7-fluoro-8-hydroxy-7-(hydroxymethyl)-6-oxa-1-thiaspiro[3.4]octan-5-yl)pyrimidin-2(1H)-one]",> 100,> 100,> 100,,77,50,> 100,,,
"CC(C)C(=O)OC[C@H]1O[C@@H](n2ccc(=O)[nH]c2=O)[C@@]2(CCS2)[C@@H]1OC(=O)C(C)C [Compound 10, (4R,5R,7R,8R)-5-(2,4-dioxo-3,4-dihydropyrimidin-1(2H)-yl)-7-((isobutyryloxy)methyl)-6-oxa-1-thiaspiro[3.4]octan-8-yl isobutyrate]",> 100,> 100,> 100,,> 100,> 100,> 100,,,
"O=c1ccn([C@@H]2O[C@](F)(COP(=O)(NC3CCC3)Oc3ccc(Cl)cc3)[C@@H](O)[C@]23CCS3)c(=O)[nH]1 (stereo partly drawn) [Compound 39, 4-chlorophenyl (((4R,5R,7S,8R)-5-(2,4-dioxo-3,4-dihydropyrimidin-1(2H)-yl)-7-fluoro-8-hydroxy-6-oxa-1-thiaspiro[3.4]octan-7-yl)methyl) cyclobutylphosphoramidate]",> 100,> 100,> 100,> 100,49,45,,,,
